Measured values reported in PubChem BioAssay AID1845194 (Molecular Pharmacology Branch, DTP, NCI, 2023).

Test system: 287954-098-R-J1 tumor spheroid viability
Experiment: Anticancer human tumor 287954-098-R-J1 patient-derived Ewing sarcoma cell line growth inhibition
Settings: spheroids with HUVEC and MSC; for IC50: curve of first compound; for viability, T/C: stronger effect = lower value
Method in brief: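 Complex tumor spheroids combined malignant cells with endothelial cells and mesenchymal stem cells. DNA-damaging drugs and DNA repair inhibitors were tested alone and in combination, at half-log dilutions down from clinical Cmax (top 10 microM if Cmax unknown), 0.25% DMSO final.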
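Further: spheroids exposed to compound for 7 days before viability readout.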
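Wherever viability, T/C is given: luminescent signal taken as surrogate of viable cell content; 100% = DMSO vehicle control viability and lower means growth inhibition.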

Compound: CNCc1ccc(-c2cc(-c3nc(-c4ccc(S(=O)(=O)C(C)C)cc4)cnc3N)on2)cc1 + CC[C@@]1(O)C(=O)OCc2c1cc1n(c2=O)Cc2cc3c(CN(C)C)c(O)ccc3nc2-1
- IC50 (second compound 0.003 µM): 198 nM
- IC50 (second compound 0.00949 µM): 158 nM
- IC50 (second compound 0.03 µM): < 9.49 nM
- IC50 (second compound 0.0949 µM): < 9.49 nM
- IC50 (second compound 0.3 µM): < 9.49 nM
- viability, T/C (second compound 0.003 µM, first compound 0.00949 µM): 109%
- viability, T/C (second compound 0.003 µM, first compound 0.03 µM): 93.4%
- viability, T/C (second compound 0.003 µM, first compound 0.0949 µM): 108%
- viability, T/C (second compound 0.003 µM, first compound 0.3 µM): 19.7%
- viability, T/C (second compound 0.003 µM, first compound 0.949 µM): 0.19%
- viability, T/C (second compound 0.003 µM, first compound 3 µM): 0.31%
- viability, T/C (second compound 0.00949 µM, first compound 0.00949 µM): 103%
- viability, T/C (second compound 0.00949 µM, first compound 0.03 µM): 114%
- viability, T/C (second compound 0.00949 µM, first compound 0.0949 µM): 89.3%
- viability, T/C (second compound 0.00949 µM, first compound 0.3 µM): 0.67%
- viability, T/C (second compound 0.00949 µM, first compound 0.949 µM): 0.1%
- viability, T/C (second compound 0.00949 µM, first compound 3 µM): 0.26%
- viability, T/C (second compound 0.03 µM, first compound 0.00949 µM): 19.1%
- viability, T/C (second compound 0.03 µM, first compound 0.03 µM): 3.38%
- viability, T/C (second compound 0.03 µM, first compound 0.0949 µM): 2.05%
- viability, T/C (second compound 0.03 µM, first compound 0.3 µM): 0.64%
- viability, T/C (second compound 0.03 µM, first compound 0.949 µM): 0.05%
- viability, T/C (second compound 0.03 µM, first compound 3 µM): 0.26%
- viability, T/C (second compound 0.0949 µM, first compound 0.00949 µM): 2.1%
- viability, T/C (second compound 0.0949 µM, first compound 0.03 µM): 2.08%
- viability, T/C (second compound 0.0949 µM, first compound 0.0949 µM): 2.28%
- viability, T/C (second compound 0.0949 µM, first compound 0.3 µM): 0.97%
- viability, T/C (second compound 0.0949 µM, first compound 0.949 µM): 0.06%
- viability, T/C (second compound 0.0949 µM, first compound 3 µM): 0.3%
- viability, T/C (second compound 0.3 µM, first compound 0.00949 µM): 2.14%
- viability, T/C (second compound 0.3 µM, first compound 0.03 µM): 2.11%
- viability, T/C (second compound 0.3 µM, first compound 0.0949 µM): 2.27%
- viability, T/C (second compound 0.3 µM, first compound 0.3 µM): 1.94%
- viability, T/C (second compound 0.3 µM, first compound 0.949 µM): 0.24%
- viability, T/C (second compound 0.3 µM, first compound 3 µM): 0.43%
